Laboratory results taken from patent US20140121237A1, “Methods for Inhibiting Virus Replication” (priority 2011, published 2014).
Where two headings read alike, the source gives them in different places.

How the values were obtained:
A/WSN/33 [1] = conditions: previously shown (literature); cited from earlier work
A/WSN/33 [2] = experiment: In vitro inhibition assay in BEAS2B cells, virus copies by qRT-PCR; assay type: cell-based, Influenza A virus
A/WSN/33 [3] = experiment: Mouse infection, lung M gene copy number by qPCR; assay type: in vivo, BALB/c female mice; conditions: prophylactic, NSC 95397 […], KN-93 10 mg/kg by gavage, lungs 48 h after infection
CAMKIIB gene expression = assay type: in vivo, mice; conditions: 10 mg/kg; 24 h and 48 h post-treatment
A/WSN/33 [4] = assay type: cell-based, Influenza A virus
A/CA/04/09 = experiment: Mouse infection, lung infectious virus titer (TCID50 on MDCK cells); assay type: in vivo, BALB/c female mice; conditions: NSC 95397 […], KN-93 10 mg/kg; for lung infectious virus (TCID50) vs control: prophylactic
[5] = mouse, in vivo
A/WSN/33 [6] = experiment: Inhibition assay in A549 cells (qRT-PCR copy number, NP staining); assay type: cell-based, Influenza A virus; conditions: A549 cells treated prophylactically or therapeutically, varying concentrations
[7] = in vivo; cited from earlier work
A/New Calcdonia/20/90 [8] = experiment: Inhibition assay in A549 cells (qRT-PCR copy number, NP staining); assay type: cell-based, Influenza A virus; conditions: A549 cells treated prophylactically or therapeutically, varying concentrations
SLC22A8 gene [9] = assay type: cell-based, human; conditions: A549 cells; varying concentrations; 24 and 48 h
A/WSN/33 [10] = experiment: Influenza replication in lungs of mice (qRT-PCR, TCID50); assay type: in vivo, BALB/c mice
Description: (§1) Animals. BALB/c female mice (6-8 week-old) were obtained from NCI. All experiments and procedures were Institutional Animal Care and Use Committee (IACUC) approved by the IACUC of UGA. The animals were kept alone in cages. They were allowed free access to water and food both before and during the experiments. All experiments were performed with 5 mice per group and repeated independently at least twice.
(§2) Drug treatment and infection. Probenecid was dissolved in PBS and injected intraperitoneally at final doses of 10 and 200 mg/kg body weight (about 0.2 ml per animal). Similar studies were done using the same doses but delivering by gavage. […] The treatments were 24 h or 48 h before infection. Prior to infection, mice were anesthetized with Avertin and infected by intranasal instillation with 50 μl of PBS containing 100 PFU of A/WSN/33 or A/New Calcdonia/20/90 influenza virus. The lungs of the mice were collected at 48 hip for qRT-PCR and TCID50. In some studies, Probenecid was administered at 48 h prior to influenza virus infection by tail vein injection (200 ul) where the following groups were evaluated (5 mice/group): Group 1—Probenecid 5.0 mg/kg; Group 2—Probenecid 0.5 mg/kg; Group 3—Probenecid 0.05 mg/kg; Group 4—Positive Control—KN93 (10 mg/kg); Group 5—Negative Control (PBS); Group 6—Probenecid 5.0 mg/kg no infection (gene silencing only).
(§3) Detection of virus replication. qRT-PCR and TCID50 of the lungs. The lungs of infected animals were longitudinally sectioned. One half of the lung was into TRizol (Invitrogen, Carlsbad, Calif., USA) for isolating total RNA. Another half lung was into MEM/without serum media for TCIT50. The qRT-PCR performance for both of virus replication and the gene expression was like in vitro.

A/New Calcdonia/20/90 [11] = experiment: as above; assay type: in vivo, BALB/c mice; conditions: mice treated with 10 or 200 mg/kg
Description: as §1, §2, §3

SLC22A8 gene [12] = test system: SLC22A8 gene; design: species or system BALB/c mice; conditions: mouse, in vivo

COc1ccc(S(=O)(=O)N(CCO)c2ccccc2CN(C)C/C=C/c2ccc(Cl)cc2)cc1 [KN-93]
influenza viral replication in MDCK cells (A/WSN/33 [1]): inhibits A/WSN/33 influenza viral replication in a dose-dependent manner
inhibition at 250 µM (A/WSN/33 [2]; Influenza A virus, WSN, BEAS-2B, read-out: inhibition of virus replication): > 80%
dose dependence of inhibition of virus replication (A/WSN/33 [2]; pretreatment 1 h, […]): inhibited influenza replication in a dose-dependent manner
lung influenza M gene copy number vs control (A/WSN/33 [3]; 24 h before infection): significantly (p<0.05) shielded
lung influenza M gene copy number vs control (A/WSN/33 [3]; 48 h before infection): not statistically significant
CAMKIIB gene expression in lungs (CAMKIIB gene expression): down-modulation
cell cytotoxicity (BEAS2B cells): insignificant
cell cytotoxicity (BEAS2B cells; 250 uM): negligible
cell cytotoxicity compared to the control (BEAS2B cells; 500 uM (highest drug concentration)): 20-30%
number of NP-staining cells compared to control (A/WSN/33 [4]): not perceptibly affected
lung infectious virus (TCID50) vs control (A/CA/04/09; 24 h before infection): significantly (p<0.05) different than control
lung infectious virus (TCID50) vs control (A/CA/04/09; 48 h before infection): not statistically significant
reduction of lung virus titers vs control (A/CA/04/09; treatment at 24 h or 48 hpi): no significant (p<0.05) effect
toxicity in mice treated with drugs only [5]: no apparent toxicity

CCCN(CCC)S(=O)(=O)c1ccc(C(=O)O)cc1 [Probenecid, 4-(dipropylsulfamoyl)benzoic acid]
influenza virus replication (A/WSN/33 [6]): refractory to influenza virus replication
increase of blood concentrations of Tamiflu (oseltamivir) [7]: more than double
influenza virus replication (A/New Calcdonia/20/90 [8]): refractory to influenza virus replication
SLC22A8 gene expression (SLC22A8 gene [9]): effectively reduce SLC22A8 gene expression
efficacy relative to Tamiflu (A/WSN/33 [10]; 10 mg/kg Probenecid, -24 or +24 h): as effective as Tamiflu treatment
influenza virus replication in lungs (A/WSN/33 [10]; mice treated prophylactically or therapeutically, varying concentrations): refractory to influenza virus replication
influenza virus replication in lungs (A/New Calcdonia/20/90 [11]): refractory to influenza virus replication
SLC22A8 gene expression (SLC22A8 gene [12]): effectively reduce SLC22A8 gene expression
toxicity (A549 cells): without causing toxicity
